The values below are quoted from earlier work in PMC5356695, “A phase 1 study of oral ridaforolimus in pediatric patients with advanced solid tumors” (Oncotarget, 2016).

SMILES strings stand for the structures.

Details of this series: method as in PMID 22037923. The note with it: cited from earlier work.

For `CO[C@H]1C[C@@H]2CC[C@@H](C)[C@@](O)(O2)C(=O)C(=O)N2CCCC[C@H]2C(=O)O[C@H]([C@H](C)C[C@@H]2CC[C@@H](OP(C)(C)=O)[C@H](OC)C2)CC(=O)[C@H](C)/C=C(\C)[C@@H](O)[C@@H](OC)C(=O)[C@H](C)C[C@H](C)/C=C/C=C/C=C/1C` [ridaforolimus], the “Blood–brain barrier passage” value is “crosses the blood–brain barrier”.
